Test results taken from US12227522B2, “Synthesis of structural analogs of largazole and associated compounds” (COLORADO STATE UNIVERSITY RESEARCH FOUNDATION, priority 2020, dated 2025).

Tests used:
Type in all cases: biochemical
[1] = target: HDAC 1 (Homo sapiens, UniProt Q13547); experiment: in vitro HDAC inhibition, HDAC isoform 1; settings: Class 1, in vitro; read-out: HDAC inhibition as IC50, HDAC Isoform 1
[2] = target: HDAC 2 (Homo sapiens, UniProt Q92769); experiment: in vitro HDAC inhibition, HDAC isoform 2; settings: Class 1, in vitro; read-out: HDAC inhibition as IC50, HDAC Isoform 2
HDAC 2, sequence (Q92769 whole entry, canonical isoform): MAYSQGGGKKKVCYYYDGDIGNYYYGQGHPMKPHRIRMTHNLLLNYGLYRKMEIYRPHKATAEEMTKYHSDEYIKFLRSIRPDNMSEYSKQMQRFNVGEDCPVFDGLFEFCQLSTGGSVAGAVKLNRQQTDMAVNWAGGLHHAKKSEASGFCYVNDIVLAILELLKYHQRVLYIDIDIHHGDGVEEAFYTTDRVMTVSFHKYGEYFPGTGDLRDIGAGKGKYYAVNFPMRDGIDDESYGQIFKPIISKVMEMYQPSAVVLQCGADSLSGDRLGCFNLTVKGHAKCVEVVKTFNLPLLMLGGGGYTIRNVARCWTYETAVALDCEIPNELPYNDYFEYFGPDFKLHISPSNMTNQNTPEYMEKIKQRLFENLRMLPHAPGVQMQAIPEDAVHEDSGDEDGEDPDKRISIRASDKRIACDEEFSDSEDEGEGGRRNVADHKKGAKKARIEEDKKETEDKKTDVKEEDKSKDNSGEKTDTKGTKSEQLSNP

[3] = target: HDAC 3 (Homo sapiens, UniProt O15379); experiment: in vitro HDAC inhibition, HDAC isoform 3; settings: Class 1, in vitro; read-out: HDAC inhibition as IC50, HDAC Isoform 3
HDAC 3, sequence (O15379 whole entry, canonical isoform): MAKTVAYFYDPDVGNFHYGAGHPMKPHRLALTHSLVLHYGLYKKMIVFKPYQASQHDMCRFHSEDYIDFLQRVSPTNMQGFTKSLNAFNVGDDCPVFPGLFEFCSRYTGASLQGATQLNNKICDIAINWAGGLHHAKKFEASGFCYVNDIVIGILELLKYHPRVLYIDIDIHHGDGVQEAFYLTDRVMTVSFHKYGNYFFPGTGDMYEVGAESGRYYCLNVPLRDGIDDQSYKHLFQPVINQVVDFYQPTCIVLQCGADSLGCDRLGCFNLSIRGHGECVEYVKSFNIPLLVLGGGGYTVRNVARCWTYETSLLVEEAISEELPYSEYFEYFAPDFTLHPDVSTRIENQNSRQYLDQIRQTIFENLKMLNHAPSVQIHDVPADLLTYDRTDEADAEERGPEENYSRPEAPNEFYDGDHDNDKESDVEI
HDAC 3, sequence (Q9Y618 395-489 partner limits assumed): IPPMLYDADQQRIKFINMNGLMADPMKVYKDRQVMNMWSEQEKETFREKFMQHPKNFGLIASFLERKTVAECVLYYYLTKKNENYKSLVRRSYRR

[4] = target: T1, HDAC 8 (Homo sapiens, UniProt Q9BY41); experiment: in vitro HDAC inhibition, HDAC isoform 8; settings: Class 1, in vitro; read-out: HDAC inhibition as IC50, HDAC Isoform 8
T1 sequence (Q9BY41 1-377): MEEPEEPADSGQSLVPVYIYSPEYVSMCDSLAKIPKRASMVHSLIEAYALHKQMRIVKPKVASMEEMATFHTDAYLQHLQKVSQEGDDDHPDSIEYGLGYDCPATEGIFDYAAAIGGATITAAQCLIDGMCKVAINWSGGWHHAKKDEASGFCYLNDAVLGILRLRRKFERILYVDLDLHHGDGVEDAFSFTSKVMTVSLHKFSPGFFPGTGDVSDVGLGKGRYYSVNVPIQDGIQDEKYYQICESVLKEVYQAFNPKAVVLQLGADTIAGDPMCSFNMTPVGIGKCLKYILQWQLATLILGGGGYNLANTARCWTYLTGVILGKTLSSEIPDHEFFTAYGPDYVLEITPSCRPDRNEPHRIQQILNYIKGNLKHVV

[5] = target: HDAC 4 (Homo sapiens, UniProt P56524); experiment: in vitro HDAC inhibition, HDAC isoform 4; settings: Class 2a, read-out: HDAC inhibition as IC50, HDAC Isoform 4
HDAC 4, sequence (P56524 whole entry, canonical isoform): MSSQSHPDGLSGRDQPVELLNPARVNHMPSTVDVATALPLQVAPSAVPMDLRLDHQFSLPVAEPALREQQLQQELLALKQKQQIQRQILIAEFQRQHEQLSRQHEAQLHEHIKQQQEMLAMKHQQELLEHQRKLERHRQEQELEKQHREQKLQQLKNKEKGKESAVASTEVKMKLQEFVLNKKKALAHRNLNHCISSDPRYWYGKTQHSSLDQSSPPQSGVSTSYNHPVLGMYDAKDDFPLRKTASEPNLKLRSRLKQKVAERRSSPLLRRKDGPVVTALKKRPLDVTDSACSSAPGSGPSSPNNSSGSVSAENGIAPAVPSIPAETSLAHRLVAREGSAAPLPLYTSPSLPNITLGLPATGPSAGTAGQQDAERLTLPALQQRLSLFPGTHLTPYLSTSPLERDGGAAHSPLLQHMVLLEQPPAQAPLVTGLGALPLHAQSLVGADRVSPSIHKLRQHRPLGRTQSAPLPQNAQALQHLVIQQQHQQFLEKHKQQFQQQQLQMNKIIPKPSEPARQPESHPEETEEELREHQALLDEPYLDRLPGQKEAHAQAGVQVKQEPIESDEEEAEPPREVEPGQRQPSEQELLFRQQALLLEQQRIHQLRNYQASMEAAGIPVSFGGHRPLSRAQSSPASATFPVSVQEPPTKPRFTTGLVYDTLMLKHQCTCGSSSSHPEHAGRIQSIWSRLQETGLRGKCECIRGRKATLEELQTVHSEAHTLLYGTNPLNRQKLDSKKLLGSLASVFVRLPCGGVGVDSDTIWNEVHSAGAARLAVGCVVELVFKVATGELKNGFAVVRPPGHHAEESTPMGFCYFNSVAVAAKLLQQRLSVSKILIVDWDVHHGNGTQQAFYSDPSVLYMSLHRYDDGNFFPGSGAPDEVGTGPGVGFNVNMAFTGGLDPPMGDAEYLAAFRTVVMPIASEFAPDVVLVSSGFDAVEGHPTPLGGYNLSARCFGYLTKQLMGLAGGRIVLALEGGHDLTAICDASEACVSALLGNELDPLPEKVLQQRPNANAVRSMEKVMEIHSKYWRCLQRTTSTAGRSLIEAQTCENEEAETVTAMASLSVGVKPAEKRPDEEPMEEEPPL

[6] = target: HDAC 5 (Homo sapiens, UniProt Q9UQL6); experiment: in vitro HDAC inhibition, HDAC isoform 5; settings: Class 2a, read-out: HDAC inhibition as IC50, HDAC Isoform 5
HDAC 5, sequence (Q9UQL6 whole entry, canonical isoform): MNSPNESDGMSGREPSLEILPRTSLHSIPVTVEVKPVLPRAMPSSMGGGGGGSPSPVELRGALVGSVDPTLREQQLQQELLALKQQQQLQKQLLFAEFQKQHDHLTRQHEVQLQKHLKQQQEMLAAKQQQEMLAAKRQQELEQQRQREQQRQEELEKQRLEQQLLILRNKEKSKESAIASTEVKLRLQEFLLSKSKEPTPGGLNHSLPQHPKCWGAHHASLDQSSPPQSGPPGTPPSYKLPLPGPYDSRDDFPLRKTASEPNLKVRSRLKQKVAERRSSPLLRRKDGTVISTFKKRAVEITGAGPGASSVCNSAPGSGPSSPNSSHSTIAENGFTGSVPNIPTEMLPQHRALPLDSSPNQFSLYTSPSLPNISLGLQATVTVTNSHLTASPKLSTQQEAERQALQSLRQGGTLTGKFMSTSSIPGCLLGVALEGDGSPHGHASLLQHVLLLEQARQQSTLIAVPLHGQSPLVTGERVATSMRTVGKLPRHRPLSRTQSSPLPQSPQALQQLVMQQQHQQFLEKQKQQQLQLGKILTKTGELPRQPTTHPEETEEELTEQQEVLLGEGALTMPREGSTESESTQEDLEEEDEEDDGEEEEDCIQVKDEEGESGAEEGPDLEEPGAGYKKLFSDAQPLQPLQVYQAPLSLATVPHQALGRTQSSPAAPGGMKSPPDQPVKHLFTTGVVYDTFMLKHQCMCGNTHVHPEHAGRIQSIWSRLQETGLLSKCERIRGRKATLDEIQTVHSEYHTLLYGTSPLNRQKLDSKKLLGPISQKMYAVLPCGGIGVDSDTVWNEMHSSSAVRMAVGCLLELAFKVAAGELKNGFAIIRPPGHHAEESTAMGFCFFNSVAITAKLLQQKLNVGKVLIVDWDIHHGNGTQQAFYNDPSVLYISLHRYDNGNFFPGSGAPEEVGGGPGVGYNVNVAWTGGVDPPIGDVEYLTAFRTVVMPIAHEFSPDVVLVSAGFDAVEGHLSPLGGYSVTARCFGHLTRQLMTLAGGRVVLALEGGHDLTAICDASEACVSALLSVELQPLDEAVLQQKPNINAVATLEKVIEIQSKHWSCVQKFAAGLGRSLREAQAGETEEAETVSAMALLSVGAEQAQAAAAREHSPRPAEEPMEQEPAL

[7] = target: T2, HDAC 7 (Homo sapiens, UniProt Q8WUI4); experiment: in vitro HDAC inhibition, HDAC isoform 7; settings: Class 2a, read-out: HDAC inhibition as IC50, HDAC Isoform 7
T2 sequence (Q8WUI4 1-952): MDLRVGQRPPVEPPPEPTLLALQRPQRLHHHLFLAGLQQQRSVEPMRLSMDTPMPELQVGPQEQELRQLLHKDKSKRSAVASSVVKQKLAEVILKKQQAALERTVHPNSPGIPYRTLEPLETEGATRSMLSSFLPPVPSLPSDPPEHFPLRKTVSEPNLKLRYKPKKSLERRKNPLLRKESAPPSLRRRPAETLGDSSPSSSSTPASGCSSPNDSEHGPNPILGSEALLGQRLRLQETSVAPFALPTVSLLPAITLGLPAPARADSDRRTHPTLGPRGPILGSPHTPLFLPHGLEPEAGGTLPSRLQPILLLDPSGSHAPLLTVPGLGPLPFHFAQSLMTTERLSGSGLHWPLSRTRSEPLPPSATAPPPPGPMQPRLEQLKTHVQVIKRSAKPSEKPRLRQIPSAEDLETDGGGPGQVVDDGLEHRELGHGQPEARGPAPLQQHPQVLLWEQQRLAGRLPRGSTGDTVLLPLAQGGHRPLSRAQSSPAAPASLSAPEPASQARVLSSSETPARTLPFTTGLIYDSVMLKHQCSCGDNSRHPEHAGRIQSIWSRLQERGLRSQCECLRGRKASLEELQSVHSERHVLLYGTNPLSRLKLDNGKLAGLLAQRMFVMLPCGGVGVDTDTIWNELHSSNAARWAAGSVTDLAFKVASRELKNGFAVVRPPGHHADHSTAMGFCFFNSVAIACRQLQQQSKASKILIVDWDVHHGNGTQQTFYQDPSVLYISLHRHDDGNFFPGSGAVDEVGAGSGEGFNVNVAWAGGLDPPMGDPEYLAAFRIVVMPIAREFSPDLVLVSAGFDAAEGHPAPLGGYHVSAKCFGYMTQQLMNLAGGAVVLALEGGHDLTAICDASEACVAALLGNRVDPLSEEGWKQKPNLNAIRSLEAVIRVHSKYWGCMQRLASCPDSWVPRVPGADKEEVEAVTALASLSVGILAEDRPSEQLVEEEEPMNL

[8] = target: HDAC 9 (Homo sapiens, UniProt Q9UKV0); experiment: in vitro HDAC inhibition, HDAC isoform 9; settings: Class 2a, read-out: HDAC inhibition as IC50, HDAC Isoform 9
HDAC 9, sequence (Q9UKV0 whole entry, canonical isoform): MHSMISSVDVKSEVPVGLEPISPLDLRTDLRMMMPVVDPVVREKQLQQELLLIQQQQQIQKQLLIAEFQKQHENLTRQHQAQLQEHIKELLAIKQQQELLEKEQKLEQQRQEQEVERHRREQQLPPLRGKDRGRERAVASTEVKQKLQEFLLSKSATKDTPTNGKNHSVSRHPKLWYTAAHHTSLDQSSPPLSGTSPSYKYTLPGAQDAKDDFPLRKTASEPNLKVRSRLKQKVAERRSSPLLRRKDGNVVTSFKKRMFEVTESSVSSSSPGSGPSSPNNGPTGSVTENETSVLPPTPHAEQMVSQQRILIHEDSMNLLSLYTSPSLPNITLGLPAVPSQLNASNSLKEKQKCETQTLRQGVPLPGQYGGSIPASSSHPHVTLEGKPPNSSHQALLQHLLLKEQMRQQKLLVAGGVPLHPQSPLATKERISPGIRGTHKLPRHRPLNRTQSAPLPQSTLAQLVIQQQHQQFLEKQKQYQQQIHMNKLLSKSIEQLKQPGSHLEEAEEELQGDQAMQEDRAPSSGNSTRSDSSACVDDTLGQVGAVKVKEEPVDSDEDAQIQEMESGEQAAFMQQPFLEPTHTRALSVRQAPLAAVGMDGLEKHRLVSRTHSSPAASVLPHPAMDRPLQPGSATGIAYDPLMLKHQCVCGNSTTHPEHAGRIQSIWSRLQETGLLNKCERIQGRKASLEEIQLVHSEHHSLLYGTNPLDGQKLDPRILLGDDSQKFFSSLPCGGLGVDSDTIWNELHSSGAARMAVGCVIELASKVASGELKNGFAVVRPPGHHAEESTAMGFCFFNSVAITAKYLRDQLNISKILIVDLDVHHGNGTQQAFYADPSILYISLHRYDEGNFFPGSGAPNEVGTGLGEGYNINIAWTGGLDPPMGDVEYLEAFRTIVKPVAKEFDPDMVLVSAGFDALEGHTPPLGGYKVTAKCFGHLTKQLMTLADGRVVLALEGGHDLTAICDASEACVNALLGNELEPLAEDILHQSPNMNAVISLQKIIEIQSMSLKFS

[9] = target: T3, HDAC 6 (Homo sapiens, UniProt Q9UBN7); experiment: in vitro HDAC inhibition, HDAC isoform 6; settings: Class 2b, read-out: HDAC inhibition as IC50, HDAC Isoform 6
T3 sequence (Q9UBN7 1-1215): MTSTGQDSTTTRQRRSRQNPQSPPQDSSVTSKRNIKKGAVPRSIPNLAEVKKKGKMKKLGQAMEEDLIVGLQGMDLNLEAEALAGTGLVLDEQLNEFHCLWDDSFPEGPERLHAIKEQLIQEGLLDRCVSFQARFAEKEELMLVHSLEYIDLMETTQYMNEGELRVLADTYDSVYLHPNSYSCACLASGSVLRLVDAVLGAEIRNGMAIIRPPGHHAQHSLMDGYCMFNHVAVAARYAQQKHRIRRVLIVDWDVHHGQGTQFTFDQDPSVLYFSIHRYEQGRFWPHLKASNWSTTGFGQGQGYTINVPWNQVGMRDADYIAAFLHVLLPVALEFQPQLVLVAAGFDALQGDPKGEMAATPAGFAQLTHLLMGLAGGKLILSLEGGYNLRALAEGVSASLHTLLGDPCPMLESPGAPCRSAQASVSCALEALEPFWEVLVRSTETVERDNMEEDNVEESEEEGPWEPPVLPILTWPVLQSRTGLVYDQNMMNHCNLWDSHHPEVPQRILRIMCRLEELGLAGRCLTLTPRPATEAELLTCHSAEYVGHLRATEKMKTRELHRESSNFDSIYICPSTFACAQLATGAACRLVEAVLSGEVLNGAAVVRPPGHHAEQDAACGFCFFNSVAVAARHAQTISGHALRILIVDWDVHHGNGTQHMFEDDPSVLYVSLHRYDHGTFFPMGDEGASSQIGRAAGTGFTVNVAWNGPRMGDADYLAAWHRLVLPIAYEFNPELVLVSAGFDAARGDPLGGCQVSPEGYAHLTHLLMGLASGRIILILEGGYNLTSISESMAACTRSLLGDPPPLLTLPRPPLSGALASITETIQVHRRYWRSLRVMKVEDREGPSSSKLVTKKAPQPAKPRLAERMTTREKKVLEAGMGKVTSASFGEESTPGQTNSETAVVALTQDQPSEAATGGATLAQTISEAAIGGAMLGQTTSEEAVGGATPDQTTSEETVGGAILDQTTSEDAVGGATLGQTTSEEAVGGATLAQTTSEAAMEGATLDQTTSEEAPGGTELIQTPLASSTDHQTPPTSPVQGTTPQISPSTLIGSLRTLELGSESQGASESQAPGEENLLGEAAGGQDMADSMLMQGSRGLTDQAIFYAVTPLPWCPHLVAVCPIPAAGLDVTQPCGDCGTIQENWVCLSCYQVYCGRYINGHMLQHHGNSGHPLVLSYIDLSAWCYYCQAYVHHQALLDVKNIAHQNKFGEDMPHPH

[10] = target: T4, HDAC 11 (Homo sapiens, UniProt Q96DB2); experiment: in vitro HDAC inhibition, HDAC isoform 11; settings: Class 4, in vitro; read-out: HDAC inhibition as IC50, HDAC Isoform 11
T4 sequence (Q96DB2 1-347): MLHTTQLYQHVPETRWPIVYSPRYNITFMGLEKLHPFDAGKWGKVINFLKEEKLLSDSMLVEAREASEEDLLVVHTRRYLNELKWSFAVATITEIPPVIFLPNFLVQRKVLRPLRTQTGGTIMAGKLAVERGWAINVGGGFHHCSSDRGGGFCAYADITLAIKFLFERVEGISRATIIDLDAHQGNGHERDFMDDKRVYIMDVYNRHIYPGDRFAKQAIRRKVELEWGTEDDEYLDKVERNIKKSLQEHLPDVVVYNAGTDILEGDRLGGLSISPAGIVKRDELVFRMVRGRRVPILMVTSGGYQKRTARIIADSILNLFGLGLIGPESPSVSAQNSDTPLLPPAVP

Measured: IC50

HDAC 1, sequence (Q13547 whole entry, canonical isoform): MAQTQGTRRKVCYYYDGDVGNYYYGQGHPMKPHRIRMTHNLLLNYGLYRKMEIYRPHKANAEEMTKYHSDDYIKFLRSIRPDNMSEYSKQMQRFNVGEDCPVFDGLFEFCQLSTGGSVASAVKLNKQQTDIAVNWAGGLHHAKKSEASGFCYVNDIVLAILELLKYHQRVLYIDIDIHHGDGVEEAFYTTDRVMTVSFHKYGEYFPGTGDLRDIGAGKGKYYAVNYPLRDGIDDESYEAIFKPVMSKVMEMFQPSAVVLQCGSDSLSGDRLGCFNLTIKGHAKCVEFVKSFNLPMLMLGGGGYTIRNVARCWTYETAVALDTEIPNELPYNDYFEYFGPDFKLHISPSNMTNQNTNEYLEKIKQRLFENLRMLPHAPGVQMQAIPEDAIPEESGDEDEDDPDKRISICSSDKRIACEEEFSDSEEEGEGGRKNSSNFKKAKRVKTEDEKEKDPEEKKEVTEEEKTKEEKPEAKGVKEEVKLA

CC(C)[C@@H]1NC(=O)[C@]2(C)CSC(=N2)c2csc(n2)CNC(=O)C[C@@H](/C=C/CCO)NC1=O
> 10 mM: [1] | [2] | [3] | [4] | [5] | [6] | [7] | [8] | [9] | [10]
